Experimental findings from US12516039B2, “N-linked isoquinoline amides as LRRK2 inhibitors, pharmaceutical compositions, and uses thereof” (Merck Sharp & Dohme LLC, priority 2020, dated 2026) are described below.

This experiment concerns the target T1, GST-tagged truncated human mutant G2019S LRRK2 (Homo sapiens, UniProt Q5S007, G2019S).
T1 construct: GST-tagged truncated human mutant G2019S LRRK2; purchased Life Technologies Corporation (Carlsbad, CA)
Nature of the experiment: LRRK2 G2019S Km ATP LanthaScreen assay. It counts as biochemical. Conditions: 134 μM ATP (Km ATP), LRRKtide substrate, mean of several tests; for IC50: read-out: LRRK2 pIC50 (converted). The method in brief:
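IC50 values are means of repeat runs, fitted with a 4-parameter logistic to the 520/495 nm TR-FRET ratio from a Tb-labeled anti-phospho-LRRKtide antibody added with EDTA. Reactions ran 90 min at room temperature at Km ATP (134 μM) with fluorescein-LRRKtide, after 15-min compound preincubation with truncated GST-tagged G2019S LRRK2.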
Background: Time-resolved FRET reads energy transfer from a long-lived donor to a nearby acceptor.

T1 sequence (Q5S007 970-2527 G2019S limits assumed): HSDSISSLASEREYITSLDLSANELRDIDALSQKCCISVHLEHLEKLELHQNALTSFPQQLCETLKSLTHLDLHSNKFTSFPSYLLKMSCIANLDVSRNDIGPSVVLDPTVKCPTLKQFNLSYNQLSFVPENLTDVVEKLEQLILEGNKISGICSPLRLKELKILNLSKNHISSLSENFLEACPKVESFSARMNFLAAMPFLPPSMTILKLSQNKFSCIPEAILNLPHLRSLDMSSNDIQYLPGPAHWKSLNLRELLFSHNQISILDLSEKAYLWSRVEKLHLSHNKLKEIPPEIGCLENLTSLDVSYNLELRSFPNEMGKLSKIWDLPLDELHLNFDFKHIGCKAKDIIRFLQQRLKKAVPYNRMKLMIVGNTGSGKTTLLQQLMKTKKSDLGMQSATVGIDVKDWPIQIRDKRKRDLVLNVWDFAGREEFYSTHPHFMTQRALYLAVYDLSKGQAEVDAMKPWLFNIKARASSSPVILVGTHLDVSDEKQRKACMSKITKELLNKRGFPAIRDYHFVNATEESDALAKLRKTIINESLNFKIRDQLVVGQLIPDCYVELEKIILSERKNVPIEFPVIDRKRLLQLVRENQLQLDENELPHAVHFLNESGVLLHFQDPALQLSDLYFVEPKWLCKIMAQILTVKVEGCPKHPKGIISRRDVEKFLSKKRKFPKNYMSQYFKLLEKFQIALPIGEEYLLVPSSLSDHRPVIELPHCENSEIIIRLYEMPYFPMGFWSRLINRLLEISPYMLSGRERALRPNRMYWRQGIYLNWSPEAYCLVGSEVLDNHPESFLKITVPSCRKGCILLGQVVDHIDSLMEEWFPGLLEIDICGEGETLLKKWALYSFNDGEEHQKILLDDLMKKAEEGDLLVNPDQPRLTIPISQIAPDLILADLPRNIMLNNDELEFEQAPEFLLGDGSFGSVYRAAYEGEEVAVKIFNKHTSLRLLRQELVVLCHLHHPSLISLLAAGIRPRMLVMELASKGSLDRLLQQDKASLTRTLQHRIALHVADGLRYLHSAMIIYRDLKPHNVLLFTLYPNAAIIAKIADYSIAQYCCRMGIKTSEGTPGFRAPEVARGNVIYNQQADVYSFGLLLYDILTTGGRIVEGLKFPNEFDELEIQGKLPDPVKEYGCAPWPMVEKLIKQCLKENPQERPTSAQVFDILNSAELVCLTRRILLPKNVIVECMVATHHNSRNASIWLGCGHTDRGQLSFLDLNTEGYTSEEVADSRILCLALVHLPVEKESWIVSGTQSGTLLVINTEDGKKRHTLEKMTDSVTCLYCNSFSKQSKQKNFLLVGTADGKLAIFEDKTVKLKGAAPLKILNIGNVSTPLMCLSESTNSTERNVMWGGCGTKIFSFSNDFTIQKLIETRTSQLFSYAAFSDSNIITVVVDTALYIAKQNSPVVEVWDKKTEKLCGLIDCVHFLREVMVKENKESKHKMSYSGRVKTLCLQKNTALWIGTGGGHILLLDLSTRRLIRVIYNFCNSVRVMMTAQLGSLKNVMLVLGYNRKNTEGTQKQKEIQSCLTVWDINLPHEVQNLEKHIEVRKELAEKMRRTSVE

For `Cc1cc2cnc(NC(=O)C3CC34CCOC4)cc2cc1N1CCN(C2(C)COCC2O)CC1` (single isomer, unassigned) [Ex-6.7, (1R, 3S or 1S,3R, or 1R,3S, or 1S,3S)-N-(6-(4-((3R, 4R or 3S,4S)-4-hydroxy-3-methyltetrahydrofuran-3-yl)piperazin-1-yl)-7-methylisoquinolin-3-yl)-5-oxaspiro[2.4]heptane-1-carboxamide], the IC50 is 126 nM.
Take `CCC1C(C(=O)Nc2cc3cc(N4CCN(C5(C)CCOC5)CC4)c(Cl)cc3cn2)C1c1cnn(C)c1` (single isomer, unassigned) [Ex-9.10]: the IC50 was 0.0813 nM.
Same read-out and setting: the result for `Cc1cc2cnc(NC(=O)C3CC3c3ccccn3)cc2cc1N1CCN(C2(C)COCC2F)CC1` (single isomer, unassigned) [Ex-6.14] reads 0.148 nM.
Consider `CN1CCN(c2cc3cc(NC(=O)C4CC4)ncc3cc2Cl)CC1` [Ex-8.2], for which the “LRRK2 pIC50” value is on record as 7.53.
For `CC1(N2CCN(c3cc4cc(NC(=O)C5CC56CCCOC6)ncc4cc3Cl)CC2)COCC1O` (single isomer, unassigned) [Ex-1.14, (1R,3S, or 1R,3R, or 1S,3S, or 1S,3R)-N-(7-chloro-6-(4-((3R,4R or 3S,4S)-4-hydroxy-3-methyltetrahydrofuran-3-yl)piperazin-1-yl)isoquinolin-3-yl)-5-oxaspiro[2.5]octane-1-carboxamide], the IC50 was 0.603 nM.
With `Cn1ccc(C2CC2C(=O)Nc2cc3cc(N4CCN(C5(C)COCC5F)CC4)c(Cl)cc3cn2)n1` (single isomer, unassigned) [Ex-10.17, (1R,2R or 1S,2S)-N-[7-chloro-6-[4-((3R,4R or 3S,4S)-4-fluoro-3-methyl-tetrahydrofuran-3-yl)piperazin-1-yl]-3-isoquinolyl]-2-(1-methylpyrazol-3-yl)cyclopropanecarboxamide], the IC50 was 2.75 nM.
Still for that read-out and setting: the result for `CC1C(C(=O)Nc2cc3cc(N4CCN(C5(C)COCC5O)CC4)c(Cl)cc3cn2)C1c1ccccn1` (single isomer, unassigned) [Ex-11.4, (1R,2R,3R, or 1R,2S,3R, or 1S,2R,3S, or 1S,2S,3S)-N-(7-chloro-6-(4-((3R,4R or 3S,4S)-4-hydroxy-3-methyltetrahydrofuran-3-yl)piperazin-1-yl)isoquinolin-3-yl)-2-methyl-3-(pyridin-2-yl)cyclopropane-1-carboxamide] reads 0.977 nM; that for `N#CC1CCN(c2cc3cc(NC(=O)C4CC4c4cncnc4)ncc3cc2Cl)CC1` (single isomer, unassigned) [Ex-5.18], 67.6 nM; that for `C[C@H]1CN(c2cc3cc(NC(=O)C4CC45CCOCC5)ncc3cc2Cl)CCN1C1(C)COCC1O` (single isomer, unassigned) [Ex-2.20, (R or S)-N-(7-chloro-6-((S or R)-4-((3R,4R, or 3S,4S)-4-hydroxy-3-methyltetrahydrofuran-3-yl)-3-methylpiperazin-1-yl)isoquinolin-3-yl)-6-oxaspiro[2.5]octane-1-carboxamide], 0.178 nM.
Turning to `CCOC1CC2(C1)CC2C(=O)Nc1cc2cc(N3CCN(C4(C)COCC4F)CC3)c(Cl)cc2cn1` (single isomer, unassigned) [Ex-10.23, (1R,2R or 1S,2S)-N-[7-chloro-6-[4-((3R,4R or 3S,4S)-4-fluoro-3-methyl-tetrahydrofuran-3-yl)piperazin-1-yl]-3-isoquinolyl]-5-ethoxy-spiro[2.3]hexane-2-carboxamide], the IC50 is 0.724 nM.
The same measure, in the same setting: the result for `CC1(N2CCN(c3cc4cc(NC(=O)C5CC56CCOC6)ncc4cc3Cl)CC2)COCC1O` (single isomer, unassigned) [Ex-2.10, (1R,3R or 1S,3S)-N-(7-chloro-6-(4-((3R,4R or 3S,4S)-4-hydroxy-3-methyltetrahydrofuran-3-yl)piperazin-1-yl)isoquinolin-3-yl)-5-oxaspiro[2.4]heptane-1-carboxamide] reads 0.589 nM.
Still for that read-out and setting: then `CC1(N2CCN(c3cc4cc(NC(=O)C5CC56CCC(F)(F)CC6)ncc4cc3Cl)CC2)COCC1O` (single isomer, unassigned) [Ex-1.19, (1R or 1S)-N-(7-chloro-6-(4-((3R,4R or 3S,4S)-4-hydroxy-3-methyltetrahydrofuran-3-yl)piperazin-1-yl)isoquinolin-3-yl)-6,6-difluorospiro[2.5]octane-1-carboxamide], with 1.1 nM; and `N#CC1(F)CCN(c2cc3cc(NC(=O)C4CC4c4cncnc4)ncc3cc2Cl)CC1` (single isomer, unassigned) [Ex-5.19], with 117 nM.
Same read-out and setting: the result for `Cc1cc2cnc(NC(=O)C3CC3c3cnn(C)c3C(F)(F)F)cc2cc1N1CCN(C2(C)CCOC2)CC1` (single isomer, unassigned) [Ex-10.33, (1R,2R or 1S,2S)-N-[7-methyl-6-[4-((R or S)-3-methyltetrahydrofuran-3-yl)piperazin-1-yl]-3-isoquinolyl]-2-[1-methyl-5-(trifluoromethyl)pyrazol-4-yl]cyclopropanecarboxamide] reads 4.79 nM.
Consider `COC1COCC1N1CCN(c2cc3cc(NC(=O)C4CC45CCOCC5)ncc3cc2Cl)CC1` (single isomer, unassigned) [Ex-5.7], for which the IC50 was 2.63 nM.
Consider `Cc1cc2cnc(NC(=O)C3CC3c3cnn(C)c3C(F)(F)F)cc2cc1N1CCN(C2(C)CCOC2)CC1` (single isomer, unassigned) [Ex-10.36, (1R,2R or 1S,2S)-N-[7-methyl-6-[4-((R or S)-3-methyltetrahydrofuran-3-yl)piperazin-1-yl]-3-isoquinolyl]-2-[1-methyl-5-(trifluoromethyl)pyrazol-4-yl]cyclopropanecarboxamide], for which the IC50 is 107 nM.
In the case of `CC1(N2CCN(c3cc4cc(NC(=O)C5CC56CC6)ncc4cc3Cl)CC2)COCC1F` (single isomer, unassigned) [Ex-10.80, (R or S)-N-[7-chloro-6-[4-((3R,4R or 3S,4S)-4-fluoro-3-methyl-tetrahydrofuran-3-yl)piperazin-1-yl]-3-isoquinolyl]spiro[2.2]pentane-2-carboxamide], the IC50 is 0.123 nM.
Still for that read-out and setting: then `Cc1cc2cnc(NC(=O)C3CC34CCOC4)cc2cc1N1CCN(C2(C)COCC2O)CC1` (single isomer, unassigned) [Ex-6.6, (1R, 3S or 1S,3R, or 1R,3S, or 1S,3S)-N-(6-(4-((3R, 4R or 3S,4S)-4-hydroxy-3-methyltetrahydrofuran-3-yl)piperazin-1-yl)-7-methylisoquinolin-3-yl)-5-oxaspiro[2.4]heptane-1-carboxamide], with 45.7 nM; and `CC1(N2CCN(c3cc4cc(NC(=O)C5CC5)ncc4cc3Cl)CC2)COCC1O` (single isomer, unassigned) [Ex-1.2, (3R,4R or 3S,4S)-N-(7-chloro-6-(4-(4-hydroxy-3-methyltetrahydrofuran-3-yl)piperazin-1-yl)isoquinolin-3-yl)cyclopropanecarboxamide], with 25.1 nM.
As for `CC(C)C1CC(C(=O)Nc2cc3cc(N4CCN(C5(C)COCC5O)CC4)c(Cl)cc3cn2)C1` (stereo not drawn) [Ex-9.3], the “LRRK2 pIC50” value worked out at 8.58.
With “(1R,2R,3R, or 1R,2S,3R, or 1S,2R,3S, or 1S,2S,3S)-N-[6-[4-((3R,4R or 3S,4S)-4-fluoro-3-methyl-tetrahydrofuran-3-yl)piperazin-1-yl]-7-methyl-3-isoquinolyl]-2-methyl-3-(1-methylpyrazol-4-yl)cyclopropanecarboxamide [Ex-10.58]”, the “LRRK2 pIC50” value amounted to 10.09.
Consider `CC1(N2CCN(c3cc4cc(NC(=O)C5CC5C(F)F)ncc4cc3Cl)CC2)COCC1F` (single isomer, unassigned) [Ex-10.75, (1R,2R or 1S,2S)-N-[7-chloro-6-[4-((3R,4R or 3S,4S)-4-fluoro-3-methyl-tetrahydrofuran-3-yl)piperazin-1-yl]-3-isoquinolyl]-2-(difluoromethyl)cyclopropanecarboxamide], for which the IC50 was 0.219 nM.
For `CC1(N2CCN(c3cc4cc(NC(=O)C5C6COCC65)ncc4cc3Cl)CC2)COCC1O` (single isomer, unassigned) [Ex-1.9, (1R or S)-N-(7-chloro-6-(4-((3R,4R or 3S,4S)-4-hydroxy-3-methyltetrahydrofuran-3-yl)piperazin-1-yl)isoquinolin-3-yl)-3-oxabicyclo[3.1.0]hexane-6-carboxamide], the IC50 was 0.794 nM.
Same read-out and setting: the result for `CCC1C(C(=O)Nc2cc3cc(N4CCN(C5(C)COCC5F)CC4)c(Cl)cc3cn2)C1c1ccn(C)n1` (single isomer, unassigned) [Ex-10.50, (1R,2R,3R, 1R,2S,3R, or 1S,2R,3S, or 1S,2S,3S)-N-[7-chloro-6-[4-((3R,4R or 3S,4S)-4-fluoro-3-methyl-tetrahydrofuran-3-yl)piperazin-1-yl]-3-isoquinolyl]-2-ethyl-3-(1-methylpyrazol-3-yl)cyclopropanecarboxamide] reads 0.0813 nM.
`COCCC(=O)Nc1cc2cc(N3CCN(C4(C)COCC4O)CC3)c(Cl)cc2cn1` (stereo not drawn) [Ex-9.1]: the “LRRK2 pIC50” value turned out to be 8.12.
Turning to `CC(C)Cn1nccc1C1CC1C(=O)Nc1cc2cc(N3CCN(C4(C)COCC4O)CC3)c(Cl)cc2cn1` (single isomer, unassigned) [Ex-10.20, (1R,2R or 1S,2S)-N-[7-chloro-6-[4-((3R,4R or 3S,4S)-4-hydroxy-3-methyl-tetrahydrofuran-3-yl)piperazin-1-yl]-3-isoquinolyl]-2-(2-isobutylpyrazol-3-yl)cyclopropanecarboxamide], the IC50 was 2.24 nM.
On the same count and under the same terms, the result for `COCC1CCC1C(=O)Nc1cc2cc(N3CCN(C4(C)COCC4O)CC3)c(Cl)cc2cn1` (single isomer, unassigned) [Ex-1.26, (1R,2S or 1R,2R, or 1S,2S, or 1S,2R)-N-(7-chloro-6-(4-((3R,4R)-4-hydroxy-3-methyltetrahydrofuran-3-yl)piperazin-1-yl)isoquinolin-3-yl)-2-(methoxymethyl)cyclobutane-1-carboxamide] reads 1.45 nM.
